Results: US20240122906A1, “METHODS OF TREATING MELANOMA WITH RIPRETINIB” (Deciphera Pharmaceuticals, LLC, priority 2021, published 2024)
Each block holds one compound with its values, some of them ahead of it.

Legend:
patients with melanoma = assay: Phase 1 study of treating melanoma with ripretinib (efficacy, RECIST 1.1); assay type: in vivo, human
Method: This is a Phase 1 study to evaluate the efficacy of ripretinib in treating patients with melanoma. An efficacy cohort of 26 patients were enrolled. Each patient was administered 150 mg of ripretinib daily in repeated 28-day cycles until disease progression, unacceptable toxicity, or consent withdrawal. Patients who had disease progression at ripretinib 150 mg QD were allowed to escalate to 150 mg twice daily (BID) after the completion of Cycle 2. The efficacy endpoints includes Objective Response Rate (ORR), Disease Control Rate (DCR), Duration of Response (DOR) Time to Best Response (TBR), and progression-free survival (PFS) as determined by radiologic review using Response Evaluation Criteria in Solid Tumors (RECIST 1.1).
Prior tyrosine kinase inhibitor (TKI) treatment analysis. […] 17 of the 25 members of the cohort received no prior TKI and, among these members, the mPFS was determined to be 10.2 months and the ORR was determined to be 29.4% (5 out of 17 members). 8 of the 25 members received TKI treatment prior to receiving ripretinib and, among these members, the mPFS was determined to be 2.9 months and the ORR was determined to be 11% (1 out of […] members).
Mutational Analysis. An analysis of the efficacy of ripretinib based on baseline mutations of melanoma among the efficacy cohort was performed. […] L576P (Exon 11), K642E (Exon 13) and N822K/Y (Exon 17) were determined to be the most prevalent baseline mutations in this cohort.

[1] = Coadministration of ripretinib with a strong CYP3A inhibitor (itraconazole): exposure; assay type: in vivo; conditions: coadministration of ripretinib with itraconazole (strong CYP3A inhibitor and P-gp inhibitor)
[2] = Coadministration of ripretinib with a proton-pump inhibitor (pantoprazole): exposure; assay type: in vivo; conditions: for differences in plasma exposure: ripretinib coadministered with pantoprazole
Method: The effect of a proton-pump inhibitor on the exposure of ripretinib was evaluated.

[3] = Food effect (high-fat meal) on ripretinib and Compound A exposure; assay type: in vivo; conditions: for AUC0-24h higher by / Cmax higher by: ripretinib 150 mg dose with a high-fat meal
Method: The effect of a high-fat breakfast on ripretinib and Compound A exposure was evaluated. A high fat meal consisted of approximately 150, 250, and 500-600 calories from protein, carbohydrate, and fat, respectively. […] Therefore, ripretinib may be taken with or without food at approximately same time each day.

Solubility = assay type: physicochemical
[4] = investigator assessment, Total (N = 26)
[5] = investigator assessment, Total, n 6

increase in AUC0-inf [1]: 99%
increase in Cmax [1]: 36%
effect on ripretinib exposure ([2]; 40 mg QD pantoprazole with 150 mg QD ripretinib): did not affect ripretinib exposure
differences in plasma exposure [2]: No clinically significant differences
AUC0-24h higher by [3]: 30%
Cmax higher by [3]: 22%
solubility (Solubility): pH-dependent solubility
SMILES: CCn1c(=O)c(-c2cc(NC(=O)Nc3ccccc3)c(F)cc2Br)cc2cnc(NC)cc21 [ripretinib]
median PFS (patients with melanoma; 150 mg daily, 28-day cycles, whole efficacy cohort): 7.3 months
confirmed ORR (patients with melanoma; Exon 11 patients): 44%
median PFS (patients with melanoma; Exon 11 patients): 10.2 months
median duration of response (patients with melanoma; Exon 11 patients): 10.5 months
median time to confirmed response (patients with melanoma; Exon 11 patients): 1.9 months
confirmed ORR (patients with melanoma; Exon 17 patients): 18%
median PFS (patients with melanoma; Exon 17 patients): 13.6 months
median duration of response (patients with melanoma; Exon 17 patients): 8.1 months
median time to confirmed response (patients with melanoma; Exon 17 patients): 1.7 months
Confirmed Partial Response, % (patients with melanoma; KIT Exon 11 (N = 9)): (44.4) %
No Response Assessment, % (patients with melanoma; KIT Exon 11 (N = 9)): (11.1) %
Progressive Disease, % (patients with melanoma; KIT Exon 11 (N = 9)): (11.1) %
Stable Disease (≥6 wks), % (patients with melanoma; KIT Exon 11 (N = 9)): (33.3) %
Progressive Disease, % (patients with melanoma; KIT Exon 13 (N = 4)): (50.0) %
Stable Disease (≥6 wks), % (patients with melanoma; KIT Exon 13 (N = 4)): (50.0) %
Confirmed Complete Response, % (patients with melanoma; KIT Exon 17 (N = 11)): (9.1) %
Confirmed Partial Response, % (patients with melanoma; KIT Exon 17 (N = 11)): (9.1) %
Progressive Disease, % (patients with melanoma; KIT Exon 17 (N = 11)): (36) %
Stable Disease (≥6 wks), % (patients with melanoma; KIT Exon 17 (N = 11)): (45.5) %
Progressive Disease, % (patients with melanoma; KIT Exon 18 (N = 1)): 100.0%
Stable Disease (≥6 wks), % (patients with melanoma; KIT Exon Amplification (N = 1)): 100.0%
Objective Response Rate, % (patients with melanoma; investigator assessment, Total): (23.1) %
Time to Response, Median (patients with melanoma; investigator assessment, Total): 1.9 Months
Best Overall Response: Confirmed Complete Response, % (patients with melanoma; [4]): (3.8) %
Best Overall Response: Confirmed Partial Response, % (patients with melanoma; [4]): (19.2) %
Best Overall Response: No Response Assessment, % (patients with melanoma; [4]): (4) %
Best Overall Response: Progressive Disease, % (patients with melanoma; [4]): (31) %
Best Overall Response: Stable Disease (≥6 weeks duration), % (patients with melanoma; [4]): (42.3) %
Duration of Response, Max (patients with melanoma; [5]): 28.6 Months
Duration of Response, Mean (patients with melanoma; [5]): 10.5 Months
Duration of Response, Median (patients with melanoma; [5]): 9.1 Months
Duration of Response, Min (patients with melanoma; [5]): 4.1 Months
mPFS (patients with melanoma; no prior TKI treatment): 10.2 months
ORR (patients with melanoma; no prior TKI treatment (5 out of 17)): 29.4%
mPFS (patients with melanoma; prior TKI treatment): 2.9 months
ORR (patients with melanoma; prior TKI treatment (1 out of 9)): 11%
confirmed ORR (patients with melanoma; radiologic review using RECIST version 1.1, whole cohort (6 out of 26)): 23.1%
confirmed and unconfirmed ORR (patients with melanoma; whole cohort): 30.8%
median DOR (mDOR) (patients with melanoma; whole cohort): 9.1 months
food effect, clinical significance ([3]; based on exposure-response analysis): not considered to be clinically significant

increase in AUC0-inf [1]: 99%
increase in Cmax [1]: no change
differences in plasma exposure [2]: No clinically significant differences
AUC0-24h higher by [3]: 47%
Cmax higher by [3]: 66%
SMILES: CCn1c(=O)c(-c2cc(NC(=O)Nc3ccccc3)c(F)cc2Br)cc2cnc(N)cc21 [Compound A]
